# Key:
# PKCβ = conditions: oral administration; cited from earlier work
# [1] = test system: visual loss in diabetic retinopathy; conditions: clinical trials; cited from earlier work
# [2] = test system: primary bovine retinal endothelial cells (BREC); assay: In vitro permeability assay, VEGF-induced, 70 kDa RITC-Dextran; type: cell-based; conditions: siRNA transfection for 72 h, 50 ng/ml VEGF
Molecule,Effect on diabetes induced-endothelial proliferation and permeability (PKCβ),Effect on visual loss [1],Effect on VEGF-induced increase in retinal endothelial permeability [2]
CN(C)C[C@@H]1CCn2cc(c3ccccc32)C2=C(C(=O)NC2=O)c2cn(c3ccccc23)CCO1 [ruboxistaurin],prevents these pathologic outcomes,delays sustained moderate visual loss in diabetic retinopathy,–
5’-GCAAUGAACACCAGGGAAA-3’ [PKCι Construct A],–,–,prevented the VEGF-induced increase in retinal endothelial permeability

# Source: article PMC3767384 (The Biochemical journal, 2012)
